In patent EP4729529A1, “PREPARATION OF PEPTIDE INHIBITOR OF INTERLEUKIN-23 RECEPTOR AND USE THEREOF” (Xizang Haisco Pharmaceutical Co., Ltd., priority 2023, dated 2024):
Starred links: 1 amine or outer side, 2 acyl side, 3 side chain; linkers in the order of their positions; H or OH if unused. Positions of bridges follow the written chain, without caps; N, C: chain ends. Non-standard residues stand in square brackets, D forms with d. Residues, ends and D or L forms follow the SMILES beside them. Phe(4-OC2H4NH2,2,3-(CH2)3) = NCCOc1ccc(C[C@H](N)C(=O)O)c2c1CCC2; Trp(7-cPr) = N[C@@H](Cc1c[nH]c2c(C3CC3)cccc12)C(=O)O; NH(CH2CH2O)4CH2CO = O=C(COCCOCCOCCOCCN[*:1])[*:2]; Trp(7-Me) = Cc1cccc2c(C[C@H](N)C(=O)O)c[nH]c12; 2Nal = N[C@@H](Cc1ccc2ccccc2c1)C(=O)O; X1 = O=C(C(N[*:1])C1(S[*:3])CC1)[*:2]; Thp(SO2) = NC1(C(=O)O)CCS(=O)(=O)CC1; AEF = NCCOc1ccc(C[C@H](N)C(=O)O)cc1; 3Pal = N[C@@H](Cc1cccnc1)C(=O)O; Cit = NC(=O)NCCC[C@H](N)C(=O)O; Pen = CC(C)(S)[C@H](N)C(=O)O; Thp = NC1(C(=O)O)CCOCC1; AEEA = NCCOCCOCC(=O)O; PEG1 = NCCOCCC(=O)O; Ahx = NCCCCCC(=O)O; Sar = CNCC(=O)O

Tests used:
IL-23R = target: T1, IL-23R (Homo sapiens, UniProt Q5VWK5); experiment: IL-23R reporter gene assay (HEK-blue IL23 reporter gene cell line, rhIL23 stimulation); format: cell-based; conditions: Inhibition of IL-23R, rhIL23 1 ng/mL, 24 hours
T1 construct: host or cells: HEK-blue IL23 reporter gene cell line
T1 sequence (Q5VWK5 24-629): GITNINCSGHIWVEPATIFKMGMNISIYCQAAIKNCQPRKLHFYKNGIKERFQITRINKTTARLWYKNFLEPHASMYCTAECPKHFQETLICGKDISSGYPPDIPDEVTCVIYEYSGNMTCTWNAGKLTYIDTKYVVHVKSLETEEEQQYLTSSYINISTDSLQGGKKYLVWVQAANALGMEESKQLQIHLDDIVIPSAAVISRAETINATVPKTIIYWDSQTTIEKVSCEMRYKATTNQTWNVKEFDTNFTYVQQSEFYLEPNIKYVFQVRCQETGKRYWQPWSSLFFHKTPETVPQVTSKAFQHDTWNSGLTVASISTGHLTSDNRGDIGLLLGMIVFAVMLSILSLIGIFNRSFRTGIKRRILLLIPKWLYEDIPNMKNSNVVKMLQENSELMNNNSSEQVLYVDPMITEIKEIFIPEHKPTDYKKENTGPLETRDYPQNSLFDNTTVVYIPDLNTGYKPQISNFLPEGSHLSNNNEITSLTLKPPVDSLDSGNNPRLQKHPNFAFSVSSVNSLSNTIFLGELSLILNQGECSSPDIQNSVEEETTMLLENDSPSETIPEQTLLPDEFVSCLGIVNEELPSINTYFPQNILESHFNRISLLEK
Description: 2. IL-23R reporter gene assay
The purpose of this assay was to assess the ability of compounds to inhibit the binding of IL23p19 to IL23R in a reporter gene system. The HEK-blue IL23 reporter gene cell line (Invivogen, hkb-il23) was cultured in DMEM + 10% FBS + 100 ug/mL Normocin medium. When the cell density reached 80%-90%, 5000 cells/well were plated into a 384-well plate, and the plate was incubated overnight at 37°C with 5% CO2. Then, the compound stock solution was diluted in DMSO, and 40 nL of the dilution was transferred into the 384-well culture plate by Echo. The plate was incubated at 37°C with 5% CO2 for 0.5 hours. 40 nL/well of rhIL23 (R&D, 1290-IL) was added to the 384-well cell culture plate at a final concentration of 1 ng/mL, and the plate was incubated at 37°C with 5% CO2 for 24 hours. 18 µL of Quanti-Blue™ solution was added to a new 384-well plate. 2 µL/well of cell culture supernatant was transferred into the 384-well plate prepared in Step 6, and the plate was incubated at 37°C with 5% CO2 for 1 hour. Absorbance values at […] were read on BMG. The binding ability of the compounds was assessed using the following formula, and IC50 values were obtained by fitting with Graphpad.
Calculation formula of inhibition rate: [formula] • where Data negative: mean of DMSO control group; and • Data positive: mean of non-IL23-stimulated group
The calculation formula of IC50 was as follows: Y = Bottom + (Top−Bottom)/(1+10^(∧)((LogIC50−X)*HillSlope)) [formula] • where X: concentration of compound; and • Y: inhibition rate of compound Table 2. Inhibition of IL-23R by test compounds

IL-23α/IL-12β and IL-23R = target: T2, IL-23α/IL-12β and IL-23R (Homo sapiens, UniProt Q5VWK5); experiment: IL-23α/IL-12β and IL-23R binding assay (TR-FRET/HTRF); conditions: inhibition of the binding of IL-23α/IL-12β to IL-23R, TR-FRET; both proteins 0.3 nM
T2 construct: purchased ACRO ILR-H82F3 (IL-23R); ILB-H52W5 (IL-23α/IL-12β)
T2 sequence (Q5VWK5 24-353 limits assumed): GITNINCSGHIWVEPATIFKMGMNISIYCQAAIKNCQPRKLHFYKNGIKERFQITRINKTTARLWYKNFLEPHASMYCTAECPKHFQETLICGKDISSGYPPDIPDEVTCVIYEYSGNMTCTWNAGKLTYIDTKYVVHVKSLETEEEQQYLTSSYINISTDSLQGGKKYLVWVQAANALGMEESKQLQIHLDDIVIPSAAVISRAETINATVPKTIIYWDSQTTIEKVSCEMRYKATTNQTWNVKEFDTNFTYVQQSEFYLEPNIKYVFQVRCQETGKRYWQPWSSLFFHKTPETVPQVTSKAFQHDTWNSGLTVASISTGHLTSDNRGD
Description: 1. IL-23α/IL-12β and IL-23R binding assay
Compounds were tested for their inhibition on the binding of IL-23α/IL-12β to IL-23R by the TR-FRET method. Solutions of proteins IL-23α/IL-12β (ACRO, Cat# ILB-H52W5) and IL-23R (ACRO, Cat# ILR-H82F3) were prepared in reaction buffer PPI (PerkinElmer, Cat# 61DB10RDF). The final concentrations of IL-23α/IL-12β and IL-23R in the reaction mixture were both 0.3 nM. Positive reference Guselkumab was 3-fold diluted from an initial concentration of 30 nM, with 10 doses. 0.1 µL of the positive reference diluted in the reaction buffer was delivered to a 384-well plate (Grenier, Cat# 784075) by the acoustic liquid delivery technique (Echo 655), and the plate was centrifuged at 1000 rpm for 1 minute. 2.5 µL of IL-23α/IL-12β solution was transferred into the 384-well reaction plate, and the plate was centrifuged at 1000 rpm for 1 minute, and incubated at 25°C for 60 minutes. 2.5 µL of IL-23R solution was transferred into the 384-well reaction plate, and the plate was centrifuged at 1000 rpm for 1 minute. 5 µL of Streptavidin-Tb cryptate and Anti 6HIS-d2 detection mixture was transferred into the 384-well reaction plate, and the plate was centrifuged at 1000 rpm for 1 minute, and incubated at 25°C for 60 minutes. Finally, the HTRF signal (Ratio 665/620 nm) was read with a BMG high-throughput drug screening multifunctional microplate reader. IC50 values were obtained by nonlinear regression curve fitting using GraphPad Prism software.

[1] = Pharmacokinetic test in mice (intravenous and intragastric, plasma LC-MS/MS); format: in vivo; conditions: male, mouse, Balb/c mice
Description: 4. Pharmacokinetic test in mice
4.1. Experimental animals: Male Balb/c mice (20-25 g, 18 mice/compound) were purchased from Chengdu Dossy Experimental Animals Co., Ltd.
4.2. Experimental design: On the day of the experiment, the Balb/c mice were randomly grouped by body weight. The animals were fasted with water available for 12-14 h one day before the administration, and were fed 4 h after the administration. Table 4. Administration information
Before and after administration, 0.06 mL of blood was taken from the orbit under isoflurane anaesthesia, and placed in an EDTAK2 centrifuge tube. The tube was centrifuged at 5000 rpm at 4°C for 10 min, and plasma was collected. The blood collection time points for the intravenous group and intragastric group were both 0 min, 5 min, 15 min, 30 min, 1 h, 2 h, 4 h, 6 h, 8 h, and 24 h. Before analysis and detection, all samples were stored at -80°C, and the samples were quantitatively analysed by LC-MS/MS. Table 5. Pharmacokinetic parameters of test compounds in mouse plasma

SMILES | IC50 (IL-23R) [pM] | IC50 (IL-23α/IL-12β and IL-23R) [pM] | AUC(0-t) ([1]; iv, i.v. (1 mg/kg)) [ng·h/mL] | clearance ([1]; iv, i.v. (1 mg/kg)) [mL/min/kg] | Vd ([1]; iv, i.v. (1 mg/kg), read-out: Vdss) [L/kg] | AUC(0-t) ([1]; po, i.g. (10 mg/kg)) [ng·h/mL] | bioavailability ([1]; po, i.g. (10 mg/kg)) [%]
CC(=O)NCCCC[C@@H]1NC(=O)[C@H](Cc2c[nH]c3c(C)cccc23)NC(=O)[C@H]([C@@H](C)O)NC(=O)[C@H](Cc2c[nH]cn2)NC(=O)[C@H]2NC(=O)COCCOCCOCCOCCNC(=O)CC[C@@H](C(=O)N[C@@H](CC(N)=O)C(=O)N[C@@H](Cc3cccnc3)C(=O)N(C)CC(N)=O)NC(=O)C3(CCOCC3)NC(=O)[C@H](Cc3ccc4ccccc4c3)NC(=O)[C@H](Cc3ccc(OCCN)cc3)NC(=O)[C@@H](NC1=O)C(C)(C)SSC2(C)C [Compound 29] ([NH(CH2CH2O)4CH2CO][Pen]HT[Trp(7-Me)]K(Ac)[Pen][AEF][2Nal][Thp]EN[3Pal][Sar]-NH2; disulfide 2-7; lactam N-11) | 1720 | 89 |  |  |  |  | 
CC(=O)NCCCC[C@@H]1NC(=O)[C@H](Cc2c[nH]c3c(C)cccc23)NC(=O)[C@H]([C@@H](C)O)NC(=O)[C@H](Cc2c[nH]cn2)NC(=O)[C@H]2NC(=O)CCOCCNC(=O)CC[C@@H](C(=O)N[C@@H](CC(N)=O)C(=O)N[C@@H](Cc3cccnc3)C(=O)N(C)CC(N)=O)NC(=O)C3(CCOCC3)NC(=O)[C@H](Cc3ccc4ccccc4c3)NC(=O)[C@H](Cc3ccc(OCCN)cc3)NC(=O)[C@@H](NC1=O)C(C)(C)SSC2(C)C [Compound 28] ([PEG1][Pen]HT[Trp(7-Me)]K(Ac)[Pen][AEF][2Nal][Thp]EN[3Pal][Sar]-NH2; disulfide 2-7; lactam N-11) | 6270 | 122 |  |  |  |  | 
CC(=O)NCCCC[C@@H]1NC(=O)[C@H](Cc2c[nH]c3c(C)cccc23)NC(=O)[C@H]([C@@H](C)O)NC(=O)[C@H](CC(N)=O)NC(=O)[C@@H](NC(C)=O)C(C)(C)SSC(C)(C)[C@@H](C(=O)N[C@@H](Cc2ccc(OCCN)cc2)C(=O)N[C@@H](Cc2ccc3ccccc3c2)C(=O)NC2(C(=O)N[C@@H](CCC(=O)O)C(=O)N[C@@H](CC(N)=O)C(=O)N[C@@H](Cc3cccnc3)C(=O)N(C)CC(N)=O)CCS(=O)(=O)CC2)NC1=O [Compound 9] | 2560 | 56 |  |  |  |  | 
CC(=O)NCCCC[C@@H]1NC(=O)[C@H](Cc2c[nH]c3c(C)cccc23)NC(=O)[C@H]([C@@H](C)O)NC(=O)[C@H](Cc2c[nH]cn2)NC(=O)[C@H]2NC(=O)CCCCCNC(=O)CC[C@@H](C(=O)N[C@@H](CC(N)=O)C(=O)N[C@@H](Cc3cccnc3)C(=O)N(C)CC(N)=O)NC(=O)C3(CCOCC3)NC(=O)[C@H](Cc3ccc4ccccc4c3)NC(=O)[C@H](Cc3ccc(OCCN)cc3)NC(=O)[C@@H](NC1=O)C(C)(C)SSC2(C)C [Compound 11] ([Ahx][Pen]HT[Trp(7-Me)]K(Ac)[Pen][AEF][2Nal][Thp]EN[3Pal][Sar]-NH2; disulfide 2-7; lactam N-11) | 7470 | 124 |  |  |  |  | 
CC(=O)NCCCC[C@@H]1NC(=O)[C@H](Cc2c[nH]c3c(C)cccc23)NC(=O)[C@H]([C@@H](C)O)NC(=O)[C@H](Cc2c[nH]cn2)NC(=O)[C@H]2NC(=O)COCCOCCNC(=O)CC[C@@H](C(=O)N[C@@H](CC(N)=O)C(=O)N[C@@H](Cc3cccnc3)C(=O)N(C)CC(N)=O)NC(=O)C3(CCOCC3)NC(=O)[C@H](Cc3ccc4ccccc4c3)NC(=O)[C@H](Cc3ccc(OCCN)cc3)NC(=O)[C@@H](NC1=O)C(C)(C)SSC2(C)C [Compound 27] ([AEEA][Pen]HT[Trp(7-Me)]K(Ac)[Pen][AEF][2Nal][Thp]EN[3Pal][Sar]-NH2; disulfide 2-7; lactam N-11) | 1370 | 114 |  |  |  |  | 
CC(=O)NC1C(=O)N[C@@H](Cc2c[nH]cn2)C(=O)N[C@@H]([C@@H](C)O)C(=O)N[C@@H](Cc2c[nH]c3c(C4CC4)cccc23)C(=O)N[C@@H](CCC(N)=O)C(=O)N[C@H](C(=O)N[C@@H](Cc2ccc(OCCN)c3c2CCC3)C(=O)N[C@@H](Cc2ccc3ccccc3c2)C(=O)NC2(C(=O)N[C@@H](CCC(=O)O)C(=O)N[C@@H](CC(N)=O)C(=O)N[C@@H](Cc3cccnc3)C(=O)N(C)CC(N)=O)CCS(=O)(=O)CC2)C(C)(C)SSC12CC2 (stereo partly shown) [Compound 24] (Ac-[X1]HT[Trp(7-cPr)]Q[Pen][Phe(4-OC2H4NH2,2,3-(CH2)3)][2Nal][Thp(SO2)]EN[3Pal][Sar]-NH2; disulfide 1-6) | 9380 | 63 | 6770 ± 183 | 2.42 ± 0.064 | 0.225 ± 0.017 | 227 ± 139 | 0.335 ± 0.2
CC(=O)N[C@@H]1C(=O)N[C@@H](Cc2c[nH]cn2)C(=O)N[C@@H]([C@@H](C)O)C(=O)N[C@@H](Cc2c[nH]c3c(C4CC4)cccc23)C(=O)N[C@@H](CCCNC(N)=O)C(=O)N[C@H](C(=O)N[C@@H](Cc2ccc(OCCN)cc2)C(=O)N[C@@H](Cc2ccc3ccccc3c2)C(=O)NC2(C(=O)N[C@@H](CCC(=O)O)C(=O)N[C@@H](CC(N)=O)C(=O)N[C@@H](Cc3cccnc3)C(=O)N(C)CC(N)=O)CCOCC2)C(C)(C)SSC1(C)C [Compound 12] (Ac-[Pen]HT[Trp(7-cPr)][Cit][Pen][AEF][2Nal][Thp]EN[3Pal][Sar]-NH2; disulfide 1-6) | 3580 | 41.7 |  |  |  |  | 
